Measured values published in the NIST ThermoML archive (doi:10.1021/je901071x).
± gives the expanded uncertainty stated by the source.

How the values were obtained:
[1] = 101 kPa, Liquid; for viscosity: Capillary tube (Ostwald / Ubbelohde) method; for mass density: Vibrating tube method
[2] = xn = mol fraction of the nth substance listed; conditions: 101 kPa, Liquid; for viscosity: Capillary tube (Ostwald / Ubbelohde) method; for mass density: Vibrating tube method

CC(C)Cc1ccccc1 [(2-methylpropyl)benzene]
[1]
Conditions	mass density [kg/m3]	viscosity [mPa·s]
303.15 K	844.4 ± 0.9	0.905 ± 0.011
308.15 K	841.1 ± 0.9	0.848 ± 0.01
313.15 K	837.6 ± 0.8	0.784 ± 0.009

CC(C)Cc1ccccc1 [(2-methylpropyl)benzene] + CCCOC=O
[2]
Conditions	mass density, 303.15 K [kg/m3]	mass density, 308.15 K [kg/m3]	mass density, 313.15 K [kg/m3]	viscosity, 303.15 K [mPa·s]	viscosity, 308.15 K [mPa·s]	viscosity, 313.15 K [mPa·s]
x2 = 0	844.4 ± 0.9	841.1 ± 0.9	837.6 ± 0.8	0.905 ± 0.011	0.848 ± 0.01	0.784 ± 0.009
x2 = 0.1508	848.8 ± 0.9	845.2 ± 0.9	841.4 ± 0.9	0.813 ± 0.01	0.771 ± 0.009	0.718 ± 0.009
x2 = 0.287	853.3 ± 0.9	849.5 ± 0.9	845.6 ± 0.9	0.743 ± 0.009	0.706 ± 0.008	0.661 ± 0.008
x2 = 0.4072	857.9 ± 0.9	854 ± 0.9	850 ± 0.9	0.687 ± 0.008	0.654 ± 0.008	0.614 ± 0.007
x2 = 0.519	862.9 ± 0.9	858.7 ± 0.9	854.5 ± 0.9	0.64 ± 0.008	0.61 ± 0.007	0.575 ± 0.007
x2 = 0.6161	867.7 ± 0.9	863.4 ± 0.9	859.1 ± 0.9	0.602 ± 0.007	0.575 ± 0.007	0.543 ± 0.007
x2 = 0.708	872.9 ± 0.9	868.5 ± 0.9	864 ± 0.9	0.569 ± 0.007	0.544 ± 0.007	0.515 ± 0.006
x2 = 0.7895	878 ± 0.9	873.4 ± 0.9	868.8 ± 0.9	0.54 ± 0.007	0.519 ± 0.006	0.492 ± 0.006
x2 = 0.8656	883.2 ± 0.9	878.4 ± 0.9	873.7 ± 0.9	0.516 ± 0.006	0.497 ± 0.006	0.471 ± 0.006
x2 = 0.9341	888.3 ± 0.9	883.4 ± 0.9	878.6 ± 0.9	0.495 ± 0.006	0.476 ± 0.006	0.451 ± 0.006

c1ccccc1 [benzene]
[1]
Conditions	mass density [kg/m3]	viscosity [mPa·s]
303.15 K	867.6 ± 0.9	0.569 ± 0.007
308.15 K	863.2 ± 0.9	0.534 ± 0.006
313.15 K	858.9 ± 0.9	0.497 ± 0.006

c1ccccc1 [benzene] + CCCOC=O
[2], x2 = 0
Conditions	mass density [kg/m3]	viscosity [mPa·s]
303.15 K	867.6 ± 0.9	0.569 ± 0.007
308.15 K	863.2 ± 0.9	0.534 ± 0.006
313.15 K	858.9 ± 0.9	0.497 ± 0.006

CCCCc1ccccc1 [butylbenzene]
[1]
Conditions	mass density [kg/m3]	viscosity [mPa·s]
303.15 K	851.3 ± 0.9	0.901 ± 0.011
308.15 K	848 ± 0.9	0.844 ± 0.01
313.15 K	844.6 ± 0.9	0.787 ± 0.009

CCCCc1ccccc1 [butylbenzene] + CCCOC=O
[2], x2 = 0
Conditions	mass density [kg/m3]	viscosity [mPa·s]
303.15 K	851.3 ± 0.9	0.901 ± 0.011
308.15 K	848 ± 0.9	0.844 ± 0.01
313.15 K	844.6 ± 0.9	0.787 ± 0.009

CC(C)c1ccccc1 [isopropylbenzene]
[1]
Conditions	mass density [kg/m3]	viscosity [mPa·s]
303.15 K	852.7 ± 0.9	0.69 ± 0.008
308.15 K	849 ± 0.9	0.651 ± 0.008
313.15 K	845.4 ± 0.9	0.611 ± 0.007

CC(C)c1ccccc1 [isopropylbenzene] + CCCOC=O
[2], x2 = 0
Conditions	mass density [kg/m3]	viscosity [mPa·s]
303.15 K	852.7 ± 0.9	0.69 ± 0.008
308.15 K	849 ± 0.9	0.651 ± 0.008
313.15 K	845.4 ± 0.9	0.611 ± 0.007

CCCOC=O [propyl methanoate]
[1]
Conditions	mass density [kg/m3]	viscosity [mPa·s]
303.15 K	893.5 ± 0.9	0.477 ± 0.006
308.15 K	888.6 ± 0.9	0.456 ± 0.006
313.15 K	883.8 ± 0.9	0.431 ± 0.005

CCCOC=O [propyl methanoate] + CC(C)Cc1ccccc1
[2], x1 = 1
Conditions	mass density [kg/m3]	viscosity [mPa·s]
303.15 K	893.5 ± 0.9	0.477 ± 0.006
308.15 K	888.6 ± 0.9	0.456 ± 0.006
313.15 K	883.8 ± 0.9	0.431 ± 0.005

CCCOC=O [propyl methanoate] + CC(C)c1ccccc1
[2]
Conditions	mass density, 303.15 K [kg/m3]	mass density, 308.15 K [kg/m3]	mass density, 313.15 K [kg/m3]	viscosity, 303.15 K [mPa·s]	viscosity, 308.15 K [mPa·s]	viscosity, 313.15 K [mPa·s]
x1 = 0.1349	856 ± 0.9	852.1 ± 0.9	848.2 ± 0.9	0.652 ± 0.008	0.617 ± 0.007	0.58 ± 0.007
x1 = 0.2617	859.5 ± 0.9	855.4 ± 0.9	851.4 ± 0.9	0.617 ± 0.007	0.585 ± 0.007	0.551 ± 0.007
x1 = 0.3812	863.3 ± 0.9	859.1 ± 0.9	855 ± 0.9	0.585 ± 0.007	0.557 ± 0.007	0.526 ± 0.006
x1 = 0.487	867.1 ± 0.9	862.7 ± 0.9	858.5 ± 0.9	0.559 ± 0.007	0.533 ± 0.006	0.504 ± 0.006
x1 = 0.5882	871 ± 0.9	866.5 ± 0.9	862.2 ± 0.9	0.537 ± 0.006	0.513 ± 0.006	0.485 ± 0.006
x1 = 0.6817	875.1 ± 0.9	870.4 ± 0.9	866 ± 0.9	0.517 ± 0.006	0.495 ± 0.006	0.468 ± 0.006
x1 = 0.7675	879.2 ± 0.9	874.4 ± 0.9	869.8 ± 0.9	0.506 ± 0.006	0.485 ± 0.006	0.459 ± 0.006
x1 = 0.8499	883.5 ± 0.9	878.6 ± 0.9	873.9 ± 0.9	0.494 ± 0.006	0.474 ± 0.006	0.448 ± 0.005
x1 = 0.9277	888.1 ± 0.9	883 ± 0.9	878.2 ± 0.9	0.484 ± 0.006	0.464 ± 0.006	0.439 ± 0.005
x1 = 1	893.5 ± 0.9	888.6 ± 0.9	883.8 ± 0.9	0.477 ± 0.006	0.456 ± 0.006	0.431 ± 0.005
